# In patent US3950387A, “Cysteine derivatives” (Recherches Pharmaceutiques et Scientifiques, priority 1972, dated 1976):
# Structures can show the parent of a compound that is named as a salt.
# Experiments:
# aortic cholesterol = experiment: Aortic cholesterol in cholesterol-fed rabbits (Folch extraction, Liebermann-Burchard method); assay type: in vivo, rabbit (male albino Bouscat); settings: rabbit
# Text: (§1) 2. Effect on atheromatic deposits in the aorta and on plasma cholesterol in the rabbit
# (§2) In order to create atheromatic lesions experimentally, male albino Bouscat rabbits having an average weight of 2.5 kg are fed on a Provende UAR rabbit diet plus 1 or 2% of cholesterol.
# (§3) At the end of 11 to 12 weeks, the animals are sacrificed by having their carotid arteries cut after being anaesthetised with Nembutal and the aorta is removed from lowermost point to the iliac fork, cut open longitudinally and spread out upon a cork board. After fixing with formaldehyde and staining with a 2% aqueous solution of acid fuchsin, pearly white atheromatic spots are apparent against the red background which enables the extent of the deposit to be evaluated quantitatively on a scale from 0 to 5 with 0 corresponding to an absence of lesions and 5 to diffuse lipid deposits covering the whole of the endothelium.
# After the inside layers of the wall of the aorta have been separated, all the lipids are extracted by the method of Folch et at. The amount of cholesterol is then determined using the Liebermann-Burchard method.
# (§4) In a first test, 60 male rabbits each weighing 2.5 kg are fed on the diet detailed below:
# (§5) 5 weeks : diet containing 2% of cholesterol
# (§6) 3 weeks : diet containing 1% of cholesterol
# (§7) From the beginning the animals are divided into 6 batches of 10 animals each which respectively receive, for the whole duration of the diet, the following products for 5 days per week by the digestive route using an oesophagal probe:
# (§8) All the products are administered in suspension in the same volume of gum arabic (5 ml).
# (§9) At the end of 12 weeks, visual examination of the atheromatic lesions in the aorta gave the results shown in Table II, the numerical data giving the average extent of deposit in each batch.
# (§10) In a second test, using the same experimental method, the two following derivatives were studied in the doses indicated below: […]
# plasma cholesterol = experiment: Plasma cholesterol in cholesterol-fed rabbits (Pearson method, Technicon auto-analyser); assay type: in vivo, rabbit (male albino Bouscat); settings: rabbit
# Description: as §1, §2
# Moreover, a check on the plasma cholesterol is carried out at regular intervals during the test using the Pearson method as adopted to the Technicon auto-analyser by Boy, Bonnafe and Mazet (Applicant's own method).
# as §4, §5, §6, §7, §8, §9, §10
# [1] = Toxicity: maximum tolerated dose in the mouse, oral route; settings: in vivo
# [2] = test system: atheromatic deposits in the aorta; experiment: Effect on atheromatic deposits in the aorta (visual examination, scale 0 to 5) in cholesterol-fed rabbits; assay type: in vivo, rabbit (male albino Bouscat); settings: for Extent of atheromatic deposit: rabbit; for Activity ranking (anti-atheromatic): conclusion over both tests in rabbits
# Text: as §1, §2, §3, §4, §5, §6, §7, §8, §9, §10
# [3] = Solubility in the standard solvents; assay type: physicochemical; settings: all the standard solvents
# [4] = first test, 200 mg/kg oral (oesophagal probe), 5 days per week, 12 weeks, diet only 20.43
# [5] = first test, 200 mg/kg oral (oesophagal probe), 5 days per week, 12 weeks, diet only 1.47
# [6] = first test, 200 mg/kg oral (oesophagal probe), 5 days per week, 12 weeks, scale 0 (no lesions) to 5 (diffuse deposits), batch average, diet only 3.5
# [7] = second test, 50 mg/kg, same experimental method, diet only 22.1
# [8] = second test, 50 mg/kg, same experimental method, diet only 2.5
# [9] = second test, 50 mg/kg, same experimental method, scale 0 to 5, diet only 4
SMILES,Aortic cholesterol (aortic cholesterol; [4]) [mg/kg],Plasma cholesterol (plasma cholesterol; [5]) [g/L],MTD [1] [mg/kg],"Extent of atheromatic deposit [2, 6]",Activity ranking (anti-atheromatic) [2],Solubility [3],Aortic cholesterol (aortic cholesterol; [7]) [mg/kg],Plasma cholesterol (plasma cholesterol; [8]) [g/L],"Extent of atheromatic deposit [2, 9]"
"N[C@@H](CSCC=Cc1ccccc1)C(=O)O [LJ 536, L β-(3-phenyl-propen-2-ylthio) α-amino propanoic acid]",12.21,1.2,4000,2.05,,,,,
"CC(=Cc1ccccc1)CCSC[C@H](N)C(=O)O [LJ 540, L β-(4-phenyl-3-methylbuten-3-ylthio) α-aminopropanoic acid]",15.00,1.29,≥ 10000,2.60,,,,,
"C=CCSC[C@H](NC(=O)CC[C@H](N)C(=O)O)C(=O)NCC(=O)O [LJ 545, L γ-glutamyl-S-allylcysteinyl glycine]",14.38,1.36,≥ 10000,2.70,,,,,
"N[C@@H](CSCc1cccnc1)C(=O)O [LJ 546, L β-[(pyridyl-3)methylthio]α-amino propanoic acid]",10.72,0.99,9000,1.85,the most active,,,,
"CC(SC[C@H](N)C(=O)O)c1ccc(Cl)cc1 (stereo partly drawn) [LJ 550, L β-[1-(p-chlorophenyl)ethylthio]α-amino propanoic acid]",11.90,1.17,4000,2,the most active,practically insoluble in all the standard solvents,,,
"CC(C)=CCC/C(C)=C/CSC[C@H](N)C(=O)O [LJ 558, S-geranylcysteine]",,,8000,,,,,,
"C=CCSC[C@H](N)C(=O)OCC [LJ 565, Ethyl L β-(propen-2-ylthio) α-amino propanoate hydrochloride]",,,1500,,the most active,,15,2.1,2.3
"C=CCSC[C@H](N)C(=O)OC(C)C [LJ 566, Isopropyl L β-(propen-2-ylthio) α-aminopropanoate hydrochloride]",,,1500,,the most active,,17.3,2.3,2.8
